Here are results for one substance from publication PMC3770654, “Gastric Antimicrobial Peptides Fail to Eradicate Helicobacter pylori Infection Due to Selective Induction and Resistance” (PLoS ONE, 2013).

Common to all, as to assay type: cell-based
The subject of assay [1] is P. aeruginosa. Briefly: Killing of P. aeruginosa by elafin (data not shown).
For assay [2], the system named is H. pylori KaE1, DSM 9691, DSM 10242 and DSM 21031. Put plainly: Radial diffusion assay, four H. pylori strains. Conditions: all four Helicobacter strains; 20 µg peptide per well, 3 days, 37 °C, microaerophilic. As to the method:
Additionally to determine inhibition of bacterial growth we performed radial diffusion assays with a modified protocol of the procedure from Robert Lehrer et al.. Briefly, H. pylori was grown on Columbia blood agar (BD, Sparks, USA), suspended in Brain Heart Infusion diluted 1:5 with aqua dest. and plated on an agar containing 20% brain heart infusion with 5% fetal calf serum. Wells with 3 mm diameter were punched into the agar and peptides were applied equivalent to the flow cytometric assay in a concentration of 20 µg per well. The agar plates were incubated for 3 days at 37 °C in a microaerophilic atmosphere with CampyGen.

Assay [3] concerns E. coli ATCC 25922. Briefly: Flow cytometric viability assay with membrane potential sensitive dye DiBAC4(3). As to the method:
(§1) The clinical isolate H. pylori KaE1 and the reference strains H. pylori DSM 9691, DSM 10242 and DSM 21031 were tested for susceptibility towards defensins, LL37 and elafin (amino acid sequences Table S1). The strain H. pylori DSM 10242 is positive for the virulence factors VacA and CagA. As control strain for antimicrobial activity served the sensitive E. coli ATCC 25922.
(§2) Bacterial viability after incubation with antimicrobial peptides or biopsy extracts was analyzed with the membrane potential sensitive dye DiBAC4(3) (bis-(1,3-dibutylbarbituric acid) trimethine oxonol) (Invitrogen, Carlsbad, CA, USA) as described previously. Briefly, 1.5x10^6 mid-logarithmic-phase bacteria/ml of H. pylori or E. coli in Schaedler Broth 1:6 were incubated with 20 µg/ml HBD1-4 (Peptide Institute, Osaka, Japan), elafin (Proteo Biotech, Kiel, Germany for FACS analysis and RDA and elafin from Peptide Institute, Osaka for CFU determination), with LL37 (Innovagen, Lund, Sweden) or with 10 µg total protein of antrum biopsy extracts at 37°C. After 90 minutes 1 µg/ml DiBAC4(3) was added to the suspensions and further incubated for 10 minutes. Then, the suspensions were centrifuged with 4500 x g for 10 minutes, pellets resuspended in 300 µl PBS and bacterial fluorescence was analyzed by a FACSCalibur^TM (BD, Sparks, USA), using Cell Quest software (BD, Sparks, USA). In each sample 10000 bacterial events were analyzed for green fluorescence and the antimicrobial activity was determined as percentage of depolarized, fluorescent bacteria. Inhibition of bacterial growth was tested by plating aliquots on Columbia blood agar and incubating at 37 C° for 2 days in a microaerophilic atmosphere with CampyGen (Oxoid, Hampshire, UK). Then colony forming units (CFU) were counted.

Assay [4] has as its system H. pylori KaE1, DSM 9691, DSM 10242 and DSM 21031. Briefly: Flow cytometric viability assay with DiBAC4(3), four H. pylori strains. On the procedure: as §1
(§3) H. pylori strains were cultured on Columbia blood agar at 37 C° for 2 days in a microaerophilic atmosphere with CampyGen (Oxoid, Hampshire, UK). Subsequently the bacteria were suspended in Schaedler Broth (BD, Sparks, USA) diluted 1:6 with aqua dest. for incubation with antimicrobial peptides.
as §2

The test system of assay [5] is H. pylori DMS 9691. Briefly: Plating on Columbia blood agar with CFU counting. Particulars: peptide 20 µg/ml, means of two independent experiments, control 8.85 x 10^5. As to the method:
as §3, §2

For assay [6], the system named is H. pylori KaE. Put plainly: Plating on Columbia blood agar with CFU counting. Conditions: peptide 20 µg/ml, means of two independent experiments, control 1.42 x 10^6. As to the method: as §3, §2
In assay [7] the test system is H. pylori DSM 21031. Briefly: Plating on Columbia blood agar with CFU counting. Conditions: peptide 20 µg/ml, means of two independent experiments, control 7.45 x 10^5. On the procedure: as §3, §2
In assay [8] the test system is H. pylori DSM 10242. Briefly: Plating on Columbia blood agar with CFU counting. Conditions: peptide 20 µg/ml, means of two independent experiments, control 6.10 x 10^5. As to the method: as §3, §2

For “Ala - Gln - Glu - Pro - Val - Lys - Gly - Pro - Val - Ser - Thr - Lys - Pro - Gly - Ser - Cys - Pro - Ile - Ile - Leu - Ile - Arg - Cys - Ala - Met - Leu - Asn - Pro - Pro - Asn - Arg - Cys - Leu - Lys - Asp - Thr - Asp - Cys - Pro - Gly - Ile - Lys - Lys - Cys - Cys - Glu - Gly - Ser - Cys - Gly - Met - Ala - Cys - Phe - Val - Pro - Gln (disulfide) [Elafin, epithelial antiprotease elafin (PI3), cationic, 4 disulphide bridges; Proteo Biotech or Peptide Institute]”, the “killing of P. aeruginosa” value in assay [1] was “limited killing”. The “zones of inhibition in radial diffusion assay” value in assay [2] was “no zones of inhibition”. Besides, the depolarized bacteria in assay [3] (20 µg/ml peptide, 1.5x10^6 bacteria/ml in Schaedler Broth 1:6, 37°C, 90 minutes, then DiBAC4(3) 10 minutes, 10000 events) is listed as 4%; in assay [4] (all 4 H. pylori strains, 20 µg/ml peptide, Schaedler Broth 1:6, 37°C, 90 minutes, DiBAC4(3)) it was “less than 5%”. Moreover, the bactericidal effect entry in assay [3] (E. coli, elafin peptides from different companies) is on record as “no bactericidal effect”; in assay [4] (H. pylori, elafin peptides from different companies) it was “no bactericidal effect”. Also, the Colony forming units in assay [5] is recorded as 9.59 x 10^5 CFU/ml; in assay [6] it was 1.29 x 10^6 CFU/ml; in assay [7], 6.82 x 10^5 CFU/ml; in assay [8], 4.85 x 10^5 CFU/ml.
